Measured values as given in patent US20230116972A1, “CD38 MODULATORS AND METHODS OF USE THEREOF” (Cytokinetics, Inc., priority 2021, published 2023).

Assays:
mouse CD38 = molecular target: T1, mouse CD38 (Mus musculus, UniProt P56528); test: mouse recombinant CD38 enzyme assay (hydrolysis of NAD+); type: biochemical; settings: read-out: mCD38 BioChem IC50
T1 sequence (P56528 1-304): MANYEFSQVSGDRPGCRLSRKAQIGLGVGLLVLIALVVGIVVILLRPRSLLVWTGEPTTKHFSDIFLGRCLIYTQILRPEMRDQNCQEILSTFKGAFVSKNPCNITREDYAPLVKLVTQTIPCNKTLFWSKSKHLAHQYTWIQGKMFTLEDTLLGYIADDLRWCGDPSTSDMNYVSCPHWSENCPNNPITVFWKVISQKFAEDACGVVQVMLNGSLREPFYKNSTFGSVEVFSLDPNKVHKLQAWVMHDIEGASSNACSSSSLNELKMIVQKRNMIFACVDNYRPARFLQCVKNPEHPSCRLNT
Procedure, shortened: (§1)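 Recombinant human or mouse CD38 hydrolyzing NAD+ in a cell-free buffered system. Dose-responses were run for 60 min at ambient temperature. Remaining NAD+ was converted to NADH by alcohol dehydrogenase, which drove diaphorase reduction of resazurin to resorufin, read at 540/590 nm.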

human CD38 = molecular target: T2, human CD38 (Homo sapiens, UniProt P28907); test: human recombinant CD38 enzyme assay (hydrolysis of NAD+); type: biochemical; settings: human recombinant CD38, 0.4 nM enzyme, 62.5 μM NAD+; read-out: hCD38 BioChem IC50
T2 sequence (P28907 1-300): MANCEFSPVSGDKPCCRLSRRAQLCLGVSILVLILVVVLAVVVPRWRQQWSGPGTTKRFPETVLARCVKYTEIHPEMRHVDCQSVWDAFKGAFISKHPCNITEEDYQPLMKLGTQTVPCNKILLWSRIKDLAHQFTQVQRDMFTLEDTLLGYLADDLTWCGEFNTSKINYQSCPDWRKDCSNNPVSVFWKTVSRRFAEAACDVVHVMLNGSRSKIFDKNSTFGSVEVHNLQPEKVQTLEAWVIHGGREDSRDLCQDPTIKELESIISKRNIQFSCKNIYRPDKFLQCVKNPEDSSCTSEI
Procedure, shortened: as §1

[1] = molecular target: T3, endogenous CD38 in HL60 cells (Homo sapiens, UniProt P28907); test: cellular CD38 assay in HL60 cells (cellular NAD levels); type: cell-based; settings: all-trans retinoic acid, 24 hours, read-out: hCD38 HL60 ATRA NAD Cell Diaphorase IC50
T3 construct: endogenous in cells; host or cells: HL60 (leukemic cells, treated with all-trans retinoic acid)
T3 sequence (P28907 1-300): T2 sequence (P28907 1-300)
Procedure, shortened: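 HL60 cells (20000/well) were treated with compound in DMSO for 24 h. Cellular NAD was then measured by an enzymatic cycling mix (alcohol dehydrogenase, diaphorase, 40 uM resazurin, 10 uM FMN, 3% ethanol, Triton X-100, pH 8.4).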

Row | Compound | IC50 (mouse CD38) [nM] | IC50 (human CD38) [nM] | IC50 [1] [nM]
1 | O=C(N[C@H]1CC[C@H](CO)CC1)c1nccc(-n2ccnc2)n1 [Compound 261, N-((1r,4r)-4-(hydroxymethyl)cyclohexyl)-4-(1H-imidazol-1-yl)pyrimidine-2-carboxamide] | 39.1 | 86.3 | 3100
2 | COCCO[C@H]1CC[C@H](NC(=O)c2cccc(-n3ccnc3)n2)CC1 [Compound 14, 6-(1H-imidazol-1-yl)-N-(4-(2-methoxyethoxy)cyclohexyl)picolinamide] | 17 | 91 | 3290
3 | Cn1cncc1-c1nccc(C(=O)Nc2ccc(C(F)(F)F)nc2)n1 [Compound 69, 2-(1-methyl-1H-imidazol-5-yl)-N-(6-(trifluoromethyl)pyridin-3-yl)pyrimidine-4-carboxamide] | 2 | 3 | 481
4 | O=C(NC1CC2(C1)CC(F)(F)C2)c1cncc(-n2ccnc2)n1 [Compound 103, N-(6,6-difluorospiro[3.3]heptan-2-yl)-6-(1H-imidazol-1-yl)pyrazine-2-carboxamide] | 30 | 146 | 1620
5 | O=C(Nc1ccc(C(F)(F)F)nc1)c1ccnc(-n2ccnc2)n1 [Compound 67, 2-(1H-imidazol-1-yl)-N-(6-(trifluoromethyl)pyridin-3-yl)pyrimidine-4-carboxamide] | 9 | 4 | 409
6 | CCO[C@H]1C[C@H](NC(=O)c2nccc(-c3cncn3C)n2)C1 [Compound 299, N-((1r,3r)-3-ethoxycyclobutyl)-4-(1-methyl-1H-imidazol-5-yl)pyrimidine-2-carboxamide] | 74.8 | 288 | 4100
7 | CC(C)(O)c1ccc(NC(=O)c2ccnc(-n3ccnc3)n2)cn1 [Compound 248, N-(6-(2-hydroxypropan-2-yl)pyridin-3-yl)-2-(1H-imidazol-1-yl)pyrimidine-4-carboxamide] | 13.8 | 10.7 | 874
8 | Cn1cncc1-c1nc(C(=O)N[C@H]2CC[C@H](C)CC2)cc(C(F)(F)F)n1 [Compound 153, 2-(1-methyl-1H-imidazol-5-yl)-N-((1r,4r)-4-methylcyclohexyl)-6-(trifluoromethyl)pyrimidine-4-carboxamide] | 2 | 25 | 3130
9 | Cc1cc(C(=O)N[C@H]2CC[C@H](C)CC2)nc(-n2ccnc2)n1 [Compound 119, 2-(1H-imidazol-1-yl)-6-methyl-N-((1r,4r)-4-methylcyclohexyl)pyrimidine-4-carboxamide] | 1 | 10 | 1580
10 | Cc1ccc(NC(=O)c2cc(-n3ccnc3)ccn2)cn1 [Compound 2, 4-(1H-imidazol-1-yl)-N-(6-methylpyridin-3-yl)picolinamide] | 1010 | 345 | 3060
11 | COC(=O)N1CCC(NC(=O)c2cccc(-n3ccnc3)n2)CC1 [Compound 45, methyl 4-(6-(1H-imidazol-1-yl)picolinamido)piperidine-1-carboxylate] | 44 | 82 | 4690
12 | COCCO[C@H]1CC[C@H](NC(=O)c2nc(OC)cc(-c3cncn3C)n2)CC1 [Compound 231, 4-methoxy-N-((1r,4r)-4-(2-methoxyethoxy)cyclohexyl)-6-(1-methyl-1H-imidazol-5-yl)pyrimidine-2-carboxamide] | 9 | 72.2 | 10200
13 | O=C(Nc1cccnc1)c1ccnc(-n2ccnc2)c1 [Compound 10, 2-(1H-imidazol-1-yl)-N-(pyridin-3-yl)isonicotinamide] | 433 | 1190 | 4350
